Experiments:
[1] = Drug degradation in DMSO up to 48 hrs; format: physicochemical
[2] = Inhibition of soybean LOX assessed as reduction in conversion of sodium linoleate to 13-hydroperoxylinoleic acid by UV analysis; design: species or system Glycine max
[3] = Antioxidant activity assessed as increase of DPPH free radical scavenging activity by measuring reducing activity at 100 uM after 60 mins by spectrophotometry; format: physicochemical; settings: 1 h
Rattus norvegicus [4] = assay: Acute toxicity in Fisher 344 rat up to 0.1 mmol/kg, ip; format: organism-based; settings: in vivo
[5] = Antioxidant activity assessed as DPPH free radical scavenging activity by measuring reducing activity at 100 uM after 20 mins by spectrophotometry; format: physicochemical; design: scale not given: the % may be the effect or the level left
[6] = Antioxidant activity assessed as inhibition of AAPH-induced linoleic acid lipid peroxidation at 100 uM; format: physicochemical
Glycine max = assay: Inhibition of soybean LOX assessed as reduction in conversion of sodium linoleate to 13-hydroperoxylinoleic acid at 100 uM by UV analysis
Rattus norvegicus [7] = assay: Anti-inflammatory activity in Fisher 344 rat assessed as inhibition of carrageenan-induced paw edema at 0.01 mmol/kg, ip after 3.5 hrs; format: functional; settings: Fisher 344, ip
[8] = Cytotoxicity against human HaCaT cells assessed as cell survival at 0.1 uM after 48 hrs by MTT assay (reference value: 96.75 +/- 1.77%); format: cell-based; settings: read-out: Survival
[9] = Cytotoxicity against human HaCaT cells assessed as cell survival at 10 uM after 48 hrs by MTT assay (reference value: 95.75 +/- 2.47%); format: cell-based; settings: read-out: Survival
[10] = Cytotoxicity against human HaCaT cells assessed as cell survival at 1 uM after 48 hrs by MTT assay (reference value: 97.50 +/- 0.71%); format: cell-based; settings: read-out: Survival
[11] = Cytotoxicity against human HaCaT cells assessed as cell survival at 0.01 uM after 48 hrs by MTT assay (reference value: 100%); format: cell-based; settings: read-out: Survival
[12] = Cytotoxicity against human HaCaT cells assessed as cell survival at 100 uM after 48 hrs by MTT assay (reference value: 88.07 +/- 9.81%); format: cell-based; settings: read-out: Survival
HaCaT [13] = assay: Antiproliferative activity against human HaCaT cells after 24 hrs by MTT assay; format: functional, cell-based
HaCaT [14] = assay: Antiproliferative activity against human HaCaT cells; format: functional, cell-based
[15] = Lipophilicity, RM of the compound by RP-TLC method; format: physicochemical
[16] = Drug metabolism in DMSO assessed as formation of oxidative product danthron at 1 mM after 2 days by HPLC analysis; format: physicochemical; settings: 48 h, 1000 µM
[17] = Chemical stability in DMSO assessed as compound degradation at 1 mM after 5 days by HPLC analysis; format: physicochemical; settings: 120 h, 1000 µM

Compound	Stability [1]	IC50 [2]	Activity [3]	Activity (Rattus norvegicus [4])	Activity [5]	inhibition (INH) [6]	inhibition (Glycine max) [%]	IC50 ([2]; read-out: IC50) [µM]	inhibition in vivo at 10 µmol/kg (Rattus norvegicus [7]) [%]	viability at 48 h, 0.1 µM [8] [%]	viability at 48 h, 10 µM [9] [%]	viability at 48 h, 1 µM [10] [%]	viability at 48 h, 0.01 µM [11] [%]	viability at 48 h, 100 µM [12] [%]	IC50 (HaCaT [13]) [nM]	IC50 (HaCaT [14]) [nM]	Rm [15]	Stability [16]	Stability [17]
O=C1c2cccc(Cl)c2Cc2c(Cl)cccc21	Unstable																		
CC(C)(C)OC(=O)CC1c2cccc(O)c2C(=O)c2c(O)cccc21		Not Active	Active	Non-toxic	9%	79%													
NCCCNCCCCNCCCNC(=O)CC1c2cccc(O)c2C(=O)c2c(O)cccc21.O=C(O)C(F)(F)F.O=C(O)C(F)(F)F.O=C(O)C(F)(F)F		Not Active	Not Active	Non-toxic	93%	87%													
NCCCCN(CCCN)C(=O)CC1c2cccc(O)c2C(=O)c2c(O)cccc21.O=C(O)C(F)(F)F.O=C(O)C(F)(F)F			Not Active	Non-toxic	48%	74%	26												
COc1ccc(C(NC(C)=O)c2ccc(OC)cc2)cc1			Not Active	Non-toxic	Not Active	94%		100	45										
CC(C)(C)OC(=O)NCCCCNC(=O)CC1c2cccc(O)c2C(=O)c2c(O)cccc21			Not Active	Non-toxic	33%	62%	46												
COc1ccc(CNC(=O)CC2c3cccc(O)c3C(=O)c3c(O)cccc32)c(OC)c1			Not Active	Non-toxic	87%	81%		50		134	8.42	135	92.3	0.05	10000				
CC(C)(C)OC(=O)NCCCN(CCCCN(CCCNC(=O)CC1c2cccc(O)c2C(=O)c2c(O)cccc21)C(=O)OC(C)(C)C)C(=O)OC(C)(C)C		Not Active	Not Active	Non-toxic	29%	93%													
COc1ccc2c(c1)c(CC(=O)O)c(C)n2C(=O)c1ccc(Cl)cc1 [INDOMETHACIN]									47										
CCCCCCCCCCCCNC(=O)CC1c2cccc(O)c2C(=O)c2c(O)cccc21			Not Active	Non-toxic	98%	74%	32			37.7	7.79	14.6	55.9	1.22	22				
O=C1c2c(O)cccc2Cc2cccc(O)c21 [ANTHRALIN]		Not Active	Active	Non-toxic	31%	28%			42	87.8	5.23	48.1	94.5	1.7	945	700	0.7		
NCCCNCCCCNCCCN [SPERMINE]		Not Active	Not Active		4%	Not Active													
COc1ccc(CNC(=O)CC2c3cccc(O)c3C(=O)c3c(O)cccc32)cc1OC			Not Active	Non-toxic	61%	65%		61.5		13.3	3	12.3	18.5	0					
NCCCCNCCCN [SPERMIDINE]		Not Active	Not Active		Not Active	Not Active													
O=C(CC1c2cccc(O)c2C(=O)c2c(O)cccc21)NCc1ccccc1			Active	Non-toxic	20%	66%		7.9	35								0.66		
Cc1c(C)c2c(c(C)c1O)CCC(C)(C(=O)O)O2 (stereo unspecified) [TROLOX]						63%													
O=C(O)CC1c2cccc(O)c2C(=O)c2c(O)cccc21			Active	Non-toxic	25%	20%		50	13	58	42	60.4	87.1	41.2	1900				
O=C(CC1c2cccc(O)c2C(=O)c2c(O)cccc21)NCCc1ccc(O)c(O)c1			Not Active	Non-toxic	32%	5%	42			114	128	112	91.1	2.98	100000				
CCOC(=O)CC1c2cccc(O)c2C(=O)c2c(O)cccc21			Active	Non-toxic	31%	14%		44.5		53.4	28.8	49.9	47	6.5	357		0.63		
NCCCCNC(=O)CC1c2cccc(O)c2C(=O)c2c(O)cccc21.O=C(O)C(F)(F)F			Not Active	Non-toxic	65%	91%	35										0.63		
CC(Cc1ccc(O)c(O)c1)C(C)Cc1ccc(O)c(O)c1 (stereo unspecified) [NORDIHYDROGUAIARETIC ACID]			Not Active		81%														
CCCCNC(=O)CC1c2cccc(O)c2C(=O)c2c(O)cccc21			Active	Non-toxic	31%	59%		10	35	83.7	24.4	80.9	87.2	13.7	5400		0.05		
COc1ccc(C(NC(=O)CC2c3cccc(O)c3C(=O)c3c(O)cccc32)c2ccc(OC)cc2)cc1			Active	Non-toxic	86%	95%		7	79.7	44	20.3	38	79.8	9.65	560		0.66	Stable	Stable
NCCc1ccc(O)c(O)c1 [DOPAMINE]			Not Active		86%	43%		100	13										
